Reference: patent US20230406885A1, “CYCLIC PEPTIDES FOR TRAPPING INTERLEUKIN-1 BETA” (MERCK SHARP & DOHME LLC, priority 2022, published 2023)
*1 amine or outer side, *2 acyl side, *3 side chain or, on linkers, in order; H or OH if unused. Where a SMILES comes first, the peptide text is derived from it. [ ]: non-standard residue; d: D form. Phe(4-(4-Ac-piperazinyl)) = CC(=O)N1CCN(c2ccc(C[C@H](N)C(=O)O)cc2)CC1; Bip(4'-COOH) = N[C@@H](Cc1ccc(-c2ccc(C(=O)O)cc2)cc1)C(=O)O; 1Nal(3S-Me) = C[C@@H](c1cccc2ccccc12)[C@H](N)C(=O)O; Ala(indolin-1-yl) = N[C@@H](CN1CCc2ccccc21)C(=O)O; Phe(4-COOH) = N[C@@H](Cc1ccc(C(=O)O)cc1)C(=O)O; dαMeDab = C[C@](CCN[*:3])(N[*:1])C(=O)[*:2]; Pro(4R-NH2) = N[C@H]1CN[C@H](C(=O)O)C1; hTyr = N[C@@H](CCc1ccc(O)cc1)C(=O)O; X9 = CCCC[C@](C)(N[*:1])C(=O)[*:2]; hCha = N[C@@H](CCC1CCCCC1)C(=O)O; 4Pal = N[C@@H](Cc1ccncc1)C(=O)O; Cha = N[C@@H](CC1CCCCC1)C(=O)O; dDab = NCC[C@@H](N)C(=O)O; dNMeA = CN[C@H](C)C(=O)O

target: T1, Recombinant human IL-1β (Homo sapiens, UniProt P01584); assay: IL-6 assay in MRC5 cells: inhibition of IL-1β induced IL-6 secretion (AlphaLISA); type: cell-based; details: inhibition of IL-1β induced IL-6 secretion in MRC5 cells; read-out: MRC5 IC50
T1 construct: purchased BioLegend 579404
T1 sequence (P01584 117-269): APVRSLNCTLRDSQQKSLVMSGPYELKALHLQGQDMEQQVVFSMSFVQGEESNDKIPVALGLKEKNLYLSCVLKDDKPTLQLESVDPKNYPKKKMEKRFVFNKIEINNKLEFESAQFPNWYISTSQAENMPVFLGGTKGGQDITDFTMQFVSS
Procedure, shortened: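 IL-1β at 2×EC80 in seeding medium (EMEM, 0.025% BSA) preincubated 1 h at ambient temperature with compound, then 3000 MRC5 cells/well added and incubated overnight at 37 °C, 5% CO2. IL-6 in conditioned medium quantified by AlphaLISA; IC50 from 4-parameter logistic fit.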

Row | Compound | IC50
1 | CC(=O)N1CCN(c2ccc(C[C@@H]3NC(=O)[C@H](CCc4ccc(O)cc4)NC(=O)[C@@H](CCN)NC(=O)CNC(=O)[C@H](CN4CCc5ccccc54)NC(=O)[C@H](Cc4ccc(-c5ccc(C(=O)O)cc5)cc4)NC(=O)CNC(=O)[C@@H](C)N(C)C(=O)[C@H](CC(=O)O)NC(=O)[C@H]([C@@H](C)c4cccc5ccccc45)NC(=O)[C@@H]4C[C@@H](N)CN4C(=O)CNC(=O)[C@H](Cc4ccc(C(=O)O)cc4)NC(=O)[C@H](Cc4c[nH]c5ccccc45)NC3=O)cc2)CC1 [Example 198] (cyclo([Phe(4-(4-Ac-piperazinyl))]W[Phe(4-COOH)]G[Pro(4R-NH2)][1Nal(3S-Me)]D[dNMeA]G[Bip(4'-COOH)][Ala(indolin-1-yl)]G[dDab][hTyr])) | 0.021 nM
2 | CC(=O)N1CCN(c2ccc(C[C@@H]3NC(=O)[C@H](CCC4CCCCC4)NC(=O)[C@@](C)(CCN)NC(=O)CNC(=O)[C@H](Cc4ccncc4)NC(=O)[C@H](Cc4ccc(-c5ccc(C(=O)O)cc5)cc4)NC(=O)CNC(=O)[C@@H](C)N(C)C(=O)[C@H](CC(=O)O)NC(=O)[C@H]([C@@H](C)c4cccc5ccccc45)NC(=O)[C@@H]4C[C@@H](N)CN4C(=O)CNC(=O)[C@H](Cc4ccc(C(=O)O)cc4)NC(=O)[C@H](Cc4c[nH]c5ccccc45)NC3=O)cc2)CC1 [Example 199] (cyclo([Phe(4-(4-Ac-piperazinyl))]W[Phe(4-COOH)]G[Pro(4R-NH2)][1Nal(3S-Me)]D[dNMeA]G[Bip(4'-COOH)][4Pal]G[dαMeDab][hCha])) | 0.024 nM
3 | CCCC[C@]1(C)NC(=O)[C@@H](CCN)NC(=O)CNC(=O)[C@H](Cc2ccncc2)NC(=O)[C@H](Cc2ccc(-c3ccc(C(=O)O)cc3)cc2)NC(=O)CNC(=O)[C@@H](C)N(C)C(=O)[C@H](CC(=O)O)NC(=O)[C@H]([C@@H](C)c2cccc3ccccc23)NC(=O)[C@@H]2C[C@@H](N)CN2C(=O)CNC(=O)[C@H](Cc2ccc(C(=O)O)cc2)NC(=O)[C@H](Cc2c[nH]c3ccccc23)NC(=O)[C@H](Cc2ccc(N3CCN(C(C)=O)CC3)cc2)NC1=O [Example 200] (cyclo([Phe(4-(4-Ac-piperazinyl))]W[Phe(4-COOH)]G[Pro(4R-NH2)][1Nal(3S-Me)]D[dNMeA]G[Bip(4'-COOH)][4Pal]G[dDab][X9])) | 0.034 nM
4 | CC(=O)N1CCN(c2ccc(C[C@@H]3NC(=O)[C@H](CCC4CCCCC4)NC(=O)[C@@H](CCN)NC(=O)CNC(=O)[C@H](Cc4ccncc4)NC(=O)[C@H](Cc4ccc(-c5ccc(C(=O)O)cc5)cc4)NC(=O)CNC(=O)[C@@H](C)N(C)C(=O)[C@H](CC(=O)O)NC(=O)[C@H]([C@@H](C)c4cccc5ccccc45)NC(=O)[C@@H]4C[C@@H](N)CN4C(=O)CNC(=O)[C@H](Cc4ccc(C(=O)O)cc4)NC(=O)[C@H](Cc4c[nH]c5ccccc45)NC3=O)cc2)CC1 [Example 201] (cyclo([Phe(4-(4-Ac-piperazinyl))]W[Phe(4-COOH)]G[Pro(4R-NH2)][1Nal(3S-Me)]D[dNMeA]G[Bip(4'-COOH)][4Pal]G[dDab][hCha])) | 0.03 nM
5 | CC(=O)N1CCN(c2ccc(C[C@@H]3NC(=O)[C@H](CCc4ccc(O)cc4)NC(=O)[C@@H](CCN)NC(=O)CNC(=O)[C@H](CC4CCCCC4)NC(=O)[C@H](Cc4ccc(-c5ccc(C(=O)O)cc5)cc4)NC(=O)CNC(=O)[C@@H](C)N(C)C(=O)[C@H](CC(=O)O)NC(=O)[C@H]([C@@H](C)c4cccc5ccccc45)NC(=O)[C@@H]4C[C@@H](N)CN4C(=O)CNC(=O)[C@H](Cc4ccc(C(=O)O)cc4)NC(=O)[C@H](Cc4c[nH]c5ccccc45)NC3=O)cc2)CC1 [Example 202] (cyclo([Phe(4-(4-Ac-piperazinyl))]W[Phe(4-COOH)]G[Pro(4R-NH2)][1Nal(3S-Me)]D[dNMeA]G[Bip(4'-COOH)][Cha]G[dDab][hTyr])) | 0.029 nM
